Key:
A549 cells = assay: Antiproliferative activity, SRB assay; type: cell-based, human
Procedure: (§1) Human biphenotypic B myelomonocytic leukemia MV4-11, human colon cancer LoVo cell line and normal mouse fibroblast BALB/3T3 cells were obtained from American Type Culture Collection (Rockville, Maryland, USA), human lung carcinoma A549 cells were obtained from European Collection of Authenticated Cell Cultures (UK). All the cell lines are being maintained at the Hirszfeld Institute of Immunology and Experimental Therapy, PAS, Wroclaw, Poland and were cultured according the procedure described before.
(§2) Cell lines were cultured according to the protocol described before. MV4-11 cells were cultured in RPMI 1640 medium (Gibco, UK) with 1.0 mM sodium pyruvate, and 10% fetal bovine serum (FBS) (all from Sigma-Aldrich, Germany). A549, LoVo and LoVo/DX cells were cultured in RPMI 1640 + Opti-MEM (1:1) (both from Gibco, UK) supplemented with 5% fetal bovine serum, 1.0 mM sodium pyruvate (LoVo and LoVo/DX cells) (all from Sigma Aldrich Germany) and 0.1 μg/mL doxorubicin chloride (Accord) (only LoVo/DX cells). BALB/3T3 cells in Dulbecco medium (IIET, Poland) supplemented with 10% fetal bovine serum (Sigma-Aldrich, Germany). All culture media were supplemented with 2 mM L-glutamine (Sigma-Aldrich, Germany), 100 units/mL penicillin, and 100 µg/mL streptomycin (both from Polfa Tarchomin S.A., Poland). All cell lines were grown at 37 °C with 5% CO2 humidified atmosphere.
(§3) The solutions of the compounds (50 mM) were prepared by dissolving the substances in DMSO (Sigma Aldrich, Germany). Then the tested compounds were diluted in culture medium to reach the final concentrations of 625, 125, 25 and 5 μM. Before adding of the tested compounds (24 h prior), the cells were plated in 96-well plates (Sarstedt, Germany) at a density of 1 × 10^4 or 0.5 × 10^4 (A549) cells per well. The assay was performed after 72 h of exposure to 625, 125, 25 and 5 μM of the tested agents. The in vitro cytotoxic effect of all agents was examined using the MTT (MV4-11) or SRB assay, described previously. The results were calculated as an IC50 (inhibitory concentration 50%) the concentration of tested agent, which is cytotoxic for 50% of the cancer cells. Each compound in each concentration was tested in triplicate in a single experiment, which was repeated 3–5 times.

LoVo cells = assay: Antiproliferative activity, SRB assay; type: cell-based, human; conditions: for IC50: 72 h exposure, SRB, mean ± SD, n.a = no activity in concentration of 5, 25, 125, 625 μM
Procedure: as §1, §2, §3

MV4-11 cells = assay: Antiproliferative activity, MTT assay; type: cell-based, human
Procedure: as §1, §2, §3

BALB/3T3 cells = assay: Toxicity towards normal fibroblasts, SRB assay; type: cell-based; conditions: normal mouse fibroblasts, 72 h exposure, mean ± SD, n.a = no activity in concentration of 5, 25, 125, 625 μM
Procedure: as §1, §2, §3

LoVo/DX cells = assay: Antiproliferative activity, SRB assay, doxorubicin resistant subline; type: cell-based, human
Procedure: Cell lines were cultured according to the protocol described before. […] All culture media were supplemented with 2 mM L-glutamine (Sigma-Aldrich, Germany), 100 units/mL penicillin, and 100 µg/mL streptomycin (both from Polfa Tarchomin S.A., Poland). All cell lines were grown at 37 °C with 5% CO2 humidified atmosphere. The solutions of the compounds (50 mM) were prepared by dissolving the substances in DMSO (Sigma Aldrich, Germany). […] The in vitro cytotoxic effect of all agents was examined using the MTT (MV4-11) or SRB assay, described previously. […] Each compound in each concentration was tested in triplicate in a single experiment, which was repeated 3–5 times.

Myzus persicae [1] = assay: Aphid settling (choice test) on treated vs control leaves of Brassica rapa subsp. pekinensis; type: in vivo; conditions: 0.1% solution in 70% ethanol, mean (± SD), n = 8, 20 aphids/replicate
Procedure: (§4) The peach potato aphids Myzus persicae (Sulzer) and the Chinese cabbage Brassica rapa subsp. pekinensis (Lour.) Hanelt were reared in laboratory at 20 °C, 65% r.h., and L16:8D photoperiod. One to seven days old apterous females of M. persicae and 3-week old plants with 4–5 fully developed leaves were used for experiments. M. persicae were obtained from the laboratory culture maintained at the Department of Botany and Ecology for many generations since 2000. All experiments were carried out under the same conditions of temperature, relative humidity, and photoperiod. The bioassays were started at 10–11.a.m. Each compound was dissolved in 70% ethanol to obtain the recommended 0.1% solution[40]. All compounds were applied on the adaxial and abaxial leaf surfaces by immersing a leaf in the ethanolic solution of a given compound for 30 s.[20]. Control leaves of similar size were immersed in 70% ethanol that was used as a solvent for the studied compounds. Experiments were performed 1 h after the compounds application to allow the evaporation of the solvent. Every plant and aphid were used only once.
This bioassay allows the study of aphid host preferences under semi-natural conditions. In the present study, aphids were given free choice between control and treated excised leaves that were placed in a Petri dish. Aphids were placed in the dish equidistance from treated and untreated leaves, so that aphids could choose between treated (on one half of a Petri dish) and control leaves (on the other half of the dish). […] Each experiment was replicated 8 times (n = 8 replicates, 20 viviparous apterous females/replicate). Aphids that were moving or not on any of the leaves were not counted.
The data of the choice-test were analyzed using Student’s t-test (STATISTICA 13.1. package). […] If aphids settled mainly on the control leaf (p < 0.05), the compound tested in the respective choice-test was stated a deterrent. From the data thus obtained the relative index of deterrence (DI) was calculated: DI = (C − T/C + T) where C was the number of aphids settled on control leaf, T was the number of aphids settled on the leaf treated with the tested compound. The value of DI ranged between 1 (ideal deterrent) and − 1 (ideal attractant)[41].

Myzus persicae [2] = assay: EPG monitoring of aphid probing and feeding (no-choice test); type: in vivo; conditions: 8-h EPG
Procedure: as §4
Aphid probing and the phloem sap uptake by M. persicae was monitored using the technique of electronic registration of aphid probing in plant tissues, known as EPG (= Electrical Penetration Graph), that is frequently employed in insect–plant relationship studies considering insects with sucking-piercing mouthparts[42]–[44]. In this experimental set-up, aphid and plant are connected to electrodes and thus made parts of an electric circuit, which is completed when the aphid inserts its stylets into the plant. Weak voltage is supplied in the circuit, and all changing electric properties are recorded as EPG waveforms that can be correlated with aphid activities and stylet position in plant tissues[45],[46]. The parameters describing aphid behaviour during probing and feeding, such as total time of probing, proportion of phloem patterns E1 and E2, number of probes, etc., are good indicators of plant suitability or interference of probing by chemical or physical factors in individual plant tissues[44]–[46]. In the present study, aphids were attached to a golden wire electrode with conductive silver paint (epgsystems. eu) and starved for 1 h prior to the experiment. Probing behaviour of 12 apterous females/studied compound and control was monitored for 8 h continuously with Giga-4 and Giga-8 DC EPG with 1 GΩ of input resistance recording equipment (EPG Systems, Wageningen, The Netherlands). Each aphid was given access to a freshly prepared plant and each aphid/plant combination was used only once. Various behavioural phases were labelled manually using the Stylet + software (www.epgsystems.eu). The following aphid behaviours were distinguished: no penetration (waveform 'np' – aphid stylets outside the plant), pathway phase—penetration of non-phloem tissues (waveforms 'ABC'), phloem phase (salivation into sieve elements, waveform ‘E1’ and ingestion of phloem sap, waveform ‘E2’), and xylem phase (ingestion of xylem sap, waveform 'G'). Waveform ‘G’ occurred rarely irrespective of the treatment. Therefore, in all calculations the xylem phase was added to the pathway phase and termed as probing in non-phloem tissues. The E1/E2 transition patterns were included in E2. Waveform patterns that were not terminated before the end of the experimental period (8 h) were not excluded from the calculations. The parameters derived from EPG recordings were analyzed according to their frequency and duration in configuration related to activities in peripheral and vascular tissues.
All statistical calculations related to data of the no-choice test were performed using StatSoft, Inc. (2014) STATISTICA (data analysis software system), version 12, www.statsoft.com. […]

[3] = system: caspase-3/7 in MV4-11 cells; assay: Caspase-3/7 activity determination (Ac-DEVD-ACC substrate); type: cell-based, human; conditions: MV4-11, 75 µM, 72 h
Procedure: Caspase-3/7 activity determination was performed according to the protocol previously described. The MV4-11 cells were seeded at the density of 1 × 10^5 cells/mL of culture medium on 24-well plates (Sarstedt, Germany) to the final volume of 2 mL. The cells were exposed to the test compounds at concentrations 75 μM or campthothecin (0.05 μg/mL) as a positive control, for 72 h. After 72 h of the incubation, the cells were collected and centrifuged (5 min., 4 °C, 250×g). Cells were suspended in 50 µL of ice-cold lysis buffer (50 mM HEPES, 10% (w/v) sucrose, 150 mM NaCl, 2 mM EDTA, 1% (v/v) Triton X-100, pH 7.3, IIET, Poland) and incubated 30 min. at 4 °C. After the incubation, 40 µL of each sample was transferred to a white, 96-well plate (Corning, USA) containing 160 µL of the reaction buffer (20 mM HEPES, 10% sucrose, 100 mM NaCl, 1 mM EDTA, 10 mM DTT, 0.02% Trition X-100, pH 7.3) (IIET, Wroclaw, Poland) with 9 µM Ac-DEVD-ACC fluorogenic substrate (λex = 360 nm, λem = 460 nm). The fluorescence increase correlated with the caspase-3/7 level was continuously recorded at 37 °C for 120 min using a Biotek Synergy H4 (Biokom, Warsaw, Poland). Compounds were tested in duplicates in single experiment and each experiment was repeated at least three times independently. Results were normalized to the number of cells in each well and are reported as mean relative caspase-3/7 activity compared to untreated control sample ± SD.

[4] = 72 h exposure, SRB, mean ± SD, n.a = no activity in concentration of 5, 25, 125, 625 μM
[5] = 0.1% solution, mean ± SE, n = 12
[6] = activities in non-phloem tissues, mean ± SE, n = 10-12
[7] = activities in sieve elements, mean ± SE, n = 10-12

Structure (SMILES): N.N.[Cl][Pt][Cl] [Cisplatin, reference compound]
- IC50 (A549 cells; [4]): 3.97 ± 1.08 µM
- Selectivity index SI, A549 (A549 cells; SI = IC50 BALB/3T3 / IC50 A549): 1.12
- IC50 (LoVo cells): 5.55 ± 0.12 µM
- Selectivity index SI, LoVo (LoVo cells; SI = IC50 BALB/3T3 / IC50 LoVo): 0.80
- IC50 (MV4-11 cells; 72 h exposure, MTT, mean ± SD, n.a = no activity in concentration of 5, 25, 125, 625 μM): 2.88 ± 0.83 µM
- Selectivity index SI, MV4-11 (MV4-11 cells; SI = IC50 BALB/3T3 / IC50 MV4-11): 1.54
- IC50 (BALB/3T3 cells): 4.44 ± 2.36 µM
- IC50 (LoVo/DX cells; [4]): 3.45 ± 1.01 µM
- IR (index of resistance) (LoVo/DX cells; IR = IC50 against resistant LoVo/DX / IC50 against non-resistant LoVo, 0 < IR < 2 able to overcome drug resistance): 0.62
- Selectivity index SI, LoVo/DX (LoVo/DX cells; SI = IC50 BALB/3T3 / IC50 LoVo/DX): 1.29

Structure (SMILES): C=CC(C)(CCCC(C)CCCC(C)CCCC(C)C)CC(=O)OCC (stereo not shown) [compound 2, ethyl 3,7,11,15-tetramethyl-3-vinylhexadecanoate]
- Mean number of aphids settled on treated (test) leaf (Myzus persicae [1]; 1 h after access): 10.8 (± 1.7)
- Mean number of aphids settled on treated (test) leaf (Myzus persicae [1]; 2 h after access): 8.9 (± 0.9)
- Mean number of aphids settled on treated (test) leaf (Myzus persicae [1]; 24 h after access): 9.6 (± 1.6)
- Mean duration of probing (C + G + E) (Myzus persicae [2]; [5]): 1.4 ± 0.6 h
- Number of probes (Myzus persicae [2]; [5]): 17.6 ± 4.1
- Total duration of pathway (C) (Myzus persicae [2]; [5]): 4.7 ± 0.8 h
- Total duration of phloem phase (E) (Myzus persicae [2]; [5]): 2.4 ± 0.8 h
- Total duration of probing (C + G + E) (Myzus persicae [2]; [5]): 7.3 ± 0.2 h
- Number of probes before first phloem phase (Myzus persicae [2]; [6]): 14.9 ± 4.1
- Time from first probe to first phloem phase (Myzus persicae [2]; [6]): 2.9 ± 0.8 h
- Duration of first phloem phase (Myzus persicae [2]; [7]): 2.0 ± 0.8 h
- Total duration of phloem salivation E1 (Myzus persicae [2]; [7]): 2.4 ± 1.2 min
- Total duration of phloem sap ingestion E2 (Myzus persicae [2]; [7]): 2.4 ± 0.8 h
- Number of probes < 3 min (Myzus persicae [2]; before first phloem phase, mean ± SE, n = 10-12): 9.1 ± 2.7
- Proportion of salivation in phloem phase (Myzus persicae [2]; (duration of E1 / duration of E1 + E2)*100): 7.9%
- Proportion of phloem phase in total probing (Myzus persicae [2]; index = duration of phloem phase E / duration of probing C + G + E): 32.0%
- Increase of caspase-3/7 activity compared to the control [3]: about 1.5 times

Structure (SMILES): COc1cccc2c1C(=O)c1c(O)c3c(c(O)c1C2=O)C[C@@](O)(C(=O)CO)C[C@@H]3O[C@H]1C[C@H](N)[C@H](O)[C@H](C)O1 [Doxorubicin]
- IC50 (LoVo cells; Homo sapiens, LoVo): 0.12 ± 0.01 µM
